Here are results for 18 substances from patent US6294650A, “Inhibition of mammalian telomerase by peptide nucleic acids” (The Board of Regents, University of Texas System, priority 1999, dated 2001).

In data set [1] the test system is human telomerase. Nature of the data set: TRAP assay of telomerase activity in HME50-5 cell extracts preincubated with PNA or PS oligomer. It is filed as biochemical. As for the experimental part: Cells were derived from a human immortal primary breast epithelial cell line (HME50-5) that expresses telomerase at high levels. Cell extracts were obtained by resuspending a 100,000 cell pellet into 200 μl of lysis buffer (0.5% 3-[3-cholamidopropyl-dimethylammonio]-1-propane-sulfonate (CHAPS), 10 mM Tris-HCl, pH 7.5, 1 mM ethylenebis(oxyethylene-nitrilo)tetraacetic acid (EGTA), 5 mM β-mercaptoethanol, 0.1 mM 4-(2-aminoethyl)benzenesulfonyl fluoride (AEBSF), 10% glycerol). The suspension was mixed by pipetting at least three times and kept on ice for 30 minutes. The lysate was centrifuged at 16,000×g for 20 minutes at 4° C., and 160 μl of the supernatant was collected. The cells were then diluted 10-fold to obtain a 50 cell equivalent/μl stock suspension, aliquoted, frozen in liquid nitrogen, and stored at -80° C. These aliquots were utilized throughout our experiments to ensure consistency.
The tubes were transferred to a PCR thermocycler set at 94° C. for 3 minutes to melt the wax barrier, cycled 30 times (30 seconds at 95° C., 30 seconds at 55° C. and 30 seconds at 72° C.) followed by a 3 minute extension at 72° C. The samples were frozen at -80° C. and the wax barrier removed. […] Gels were fixed for 30 minutes (1:1 ethanol: water, 0.5 M NaCl, 40 mM NaOAc, pH 4.2) then exposed to a phosphorimager screen for quantitation. […] Data was processed using ImageQuant software version 3.3.
Varied concentrations of PNA were added to cell extracts containing the TS primer. Telomerase products were visualized by gel electrophoresis and the extent of inhibition was quantified by phosphorimager analysis by evaluating each lane of the gels separately. The lanes were further separated into two areas for evaluation; one for the internal amplification standard (ITAS) and the other for all telomerase products. […] This ratio was taken to indicate telomerase activity with the ratio of the positive control being assigned 100% activity. The extent of inhibition as a function of the concentration of the added PNA was plotted and these graphs were utilized to derive the IC50.
Telomerase activity was measured using the telomeric repeat amplification protocol (TRAP). Rather than measure the change in chromosome length over time, a process that requires weeks to produce definitive results and measures telomerase activity only indirectly, the TRAP assay measures the elongation of a short oligonucleotide primer (TS primer) known to act as an efficient substrate of telomerase. Cell extracts from a human immortal breast epithelial cell line, HME50-5, expressing telomerase were preincubated with PNAs to allow recognition of complementary sequences by Watson-Crick base-pairing. The TS primer was then added to initiate chain elongation by telomerase. Following elongation of the TS primer, the mixture was transferred to a thermocycler and polymerase chain reaction (PCR) was performed to amplify the products. Two potential template DNAs were present, and amplification products were primed from either an internal amplification standard (ITAS) or from the product of telomerase elongation of the TS primer. These amplification products were separated by gel electrophoresis and quantitated separately. A ratio of the amount of amplified products of telomerase activity to that derived from amplification of the ITAS standard was determined and compared to a positive control to which no PNA was added. This comparison allowed calculation of the inhibition of telomerase activity due to a given concentration of PNA.

Data set [2] has as its system human telomerase. Nature of the data set: TRAP assay of telomerase activity in permeabilized HME50-5 cells. The note with it: 37° C., read-out: IC50 (nM) Perm. Cells 37° C. It is filed as cell-based. How it is done:
To examine the ability of PNAs to inhibit telomerase activity within permeabilized cells HME50-5 cells were treated with a buffered solution containing a relatively low concentration of detergent (20 mM Tris-HCl, pH 8.3, 1.5 mM MgCl2, 68 mM KCl, 0.5% Tween 20, 1 mM EGTA, 5.0% glycerol, and 0.1 mM AEBSF). The telomerase activity in these cells was not further purified, and permeabilized cells were incubated with PNA and PS oligomers prior to assay for telomerase activity.
A further control experiment was performed to ensure that the observed. inhibition was due to PNA entry into permeabilized cells The TRAP assay was utilized to compare the level of telomerase activity retained inside permeabilized cells to activity which leaks into solution. This control was necessary to ensure that the observed inhibition was due to PNA inhibition of telomerase within cells. Permeabilized cells were centrifuged and the cell pellet and the cell-free supernatant were separately examined for telomere activity using the TRAP assay. Greater than 80% of telomerase activity remained associated with the cell pellet after this mild treatment, confirming that telomerase is largely retained inside permeabilized cells.
Telomerase activity was determined using the telomere repeat amplification protocol (TRAP) assay essentially as described (Piatyszek et al. (1995) Methods in Cell Science 17: 1) with the modification that the cellular extract was preincubated at 25° C. for 30 minutes with the PNA at the concentrations indicated. Following preincubation 3 μl of the cellular extract plus PNA was added to a PCR tube containing 46 μl of reaction buffer (20 mM Tris-HCl, pH 8.3, 1.5 MM MgCl2, 68 MM KCl, 0.05% Tween-20, 1 mM EGTA), 50 μM dNTPs, 0.1 μg TS primer (5'-[…]-3' (SEQ ID NO:23)), 5 attg ITAS template (25), 0.5 μM T4 gene 32 protein, 2 Units Taq polymerase, 4 μCi^32 P-α dCTP) above a wax barrier separating 0.1 μg of the CX, reverse primer (5'-[…]-3' (SEQ ID NO:24)), and incubated for 30 minutes to allow telomerase to elongate the TS primer. The tubes were transferred to a PCR thermocycler set at 94° C. for 3 minutes to melt the wax barrier, cycled 30 times (30 seconds at 95° C., 30 seconds at 55° C. and 30 seconds at 72° C.) followed by a 3 minute extension at 72° C. The samples were frozen at -80° C. and the wax barrier removed. The solution containing the PCR products (40 μl) was added to 3.3 μl of loading buffer and 20 μl was loaded onto a 10% non-denaturing polyacrylamide gel and separated by electrophoresis at 180 volts for 45 minutes followed by 280 volts for 1 hour and 45 minutes. Gels were fixed for 30 minutes (1:1 ethanol: water, 0.5 M NaCl, 40 mM NaOAc, pH 4.2) then exposed to a phosphorimager screen for quantitation. Phosphorimager analysis was performed utilizing a Molecular Dynamics model 425F phosphorimager. Data was processed using ImageQuant software version 3.3.
Varied concentrations of PNA were added to cell extracts containing the TS primer. Telomerase products were visualized by gel electrophoresis and the extent of inhibition was quantified by phosphorimager analysis by evaluating each lane of the gels separately. The lanes were further separated into two areas for evaluation; one for the internal amplification standard (ITAS) and the other for all telomerase products. A ratio of telomerase products to ITAS was determined and compared to a positive control in which no PNA had been added. This ratio was taken to indicate telomerase activity with the ratio of the positive control being assigned 100% activity. The extent of inhibition as a function of the concentration of the added PNA was plotted and these graphs were utilized to derive the IC50.
The potential for such interactions to interfere with the location of hTR by PNAs was evaluated by examining elongation under conditions more similar to those in vivo. PNAs were applied to HME50-5 cells that had been mildly permeabilized. […]

Where [3] appears, read: HME50-5 cell extract, 37° C., read-out: IC50 (nM) Cell Extract 37° C.
[4] abbreviates: HME50-5 cell extract, 25° C., 30 min preincubation, read-out: IC50 (nM) Cell Extract 25° C.

In general, IC50 refers to the concentration at which inhibition is half-maximal. As to “PNA (VII): complementary PNA, sequence CTCAGTTAGGGTTAG (all peptide nucleic acid (PNA))”, the IC50 with human telomerase [1] (setting [3]) stood at 70 nM.

Turning to “PS (IV): non-complementary phosphorothioate oligonucleotide AGGATCTTCACCTAGATCCT (all phosphorothioate, sugars by position and methylation of C not given here) [reference compound]”, the IC50 with human telomerase [1] (setting [4]) was found to be 100 nM; in the data set on human telomerase [1] (setting [3]), 400 nM.

For the substance “PS (II): complementary phosphorothioate oligonucleotide CTCAGTTAGGGTTAG (all phosphorothioate, sugars by position and methylation of C not given here) [reference compound]”, the IC50 with human telomerase [1] (setting [4]) worked out at 100 nM; with human telomerase [1] (setting [3]), 700 nM.

“PNA (IX): complementary PNA, sequence TAGGGTTAGAC (all peptide nucleic acid (PNA))”: the IC50 is approximately 10 nM with human telomerase [1] (HME50-5 cell extract, 25° C., 30 min preincubation, listed as PNA IX, read-out: IC50 (nM) Cell Extract 25° C.) and 10 nM in the data set on human telomerase [1] (setting [4]).

“PS (V): non-complementary phosphorothioate oligonucleotide TGTAAGGAACTAG (all phosphorothioate, sugars by position and methylation of C not given here) [reference compound]”: the IC50 in the data set on human telomerase [1] (setting [4]) amounted to 100 nM; in the data set with human telomerase [1] (setting [3]) it was 450 nM.

Take “PNA (III): complementary PNA, sequence TTAGGGTTAG (all peptide nucleic acid (PNA))”: the IC50 in the data set with human telomerase [1] (setting [4]) amounted to 200 nM; in the data set on human telomerase [1] (setting [3]) it was 400 nM; in the data set on human telomerase [1] (cell extract, 30 min preincubation, read-out: IC50 for inhibition of telomerase), 200 nM; with human telomerase [2], 500 nM.

“PNA (XV): non-complementary PNA, sequence TGTAAGGAACTAG (all peptide nucleic acid (PNA)) [reference compound]”: the IC50 in the data set on human telomerase [1] (setting [4]) and in the data set with human telomerase [1] (setting [3]) was more than 33000 nM throughout. Besides, the “inhibition of human telomerase activity (in words)” value in the data set with human telomerase [1] (cell extract) is on record as “did not detectably inhibit”.

Take “PNA (XI): complementary PNA, sequence GGGTTAGACAA (all peptide nucleic acid (PNA))”: the IC50 with human telomerase [1] (HME50-5 cell extract, 25° C., 30 min preincubation, listed as PNA XI, read-out: IC50 (nM) Cell Extract 25° C.) was approximately 10 nM; with human telomerase [1] (setting [4]), 10 nM; in the data set with human telomerase [1] (setting [3]), 50 nM; with human telomerase [2] it was 70 nM.

Regarding “PNA (X): complementary PNA, sequence GTTAGGGTTAGAC (antisense; all peptide nucleic acid (PNA))”, the IC50 in the data set with human telomerase [1] (HME50-5 cell extract, 25° C., 30 min preincubation, listed as PNA X, read-out: IC50 (nM) Cell Extract 25° C.) is approximately 10 nM; in the data set with human telomerase [1] (setting [4]) it was 10 nM.

For the substance “PS (I): complementary phosphorothioate oligonucleotide 5'-GTTAGGGTTAG-3' (all phosphorothioate, sugars by position not given here) [reference compound]”, the values for the IC50 with human telomerase [1] (setting [4]) and in the data set with human telomerase [1] (setting [3]) were 75 nM and 250 nM, respectively.

With “PNA (XIV): non-complementary PNA, sequence AGGATCTTCACCTAGATCCT (all peptide nucleic acid (PNA)) [reference compound]”, the IC50 in the data set on human telomerase [1] (setting [4]) and in the data set with human telomerase [1] (setting [3]) was more than 33000 nM each time. Also, in the data set with human telomerase [1] (cell extract), the “inhibition of human telomerase activity (in words)” value is “did not detectably inhibit”.

As for “PNA (V): complementary PNA, sequence AGTTAGGGTTAG (all peptide nucleic acid (PNA))”, the IC50 in the data set on human telomerase [1] (setting [4]) is 10 nM; in the data set with human telomerase [1] (setting [3]), 75 nM; in the data set with human telomerase [2], 370 nM.

As to “PS (III): complementary phosphorothioate oligonucleotide TAGGGTTAGACAA (all phosphorothioate, sugars by position and methylation of C not given here) [reference compound]”, the values for the IC50 in the data set with human telomerase [1] (setting [4]) and in the data set with human telomerase [1] (setting [3]) were 50 nM and 200 nM, respectively.

For “PNA (VI): complementary PNA, sequence CAGTTAGGGTTAG (all peptide nucleic acid (PNA))”, the IC50 in the data set on human telomerase [1] (setting [4]) was determined as 10 nM; with human telomerase [1] (setting [3]) it was 50 nM; in the data set with human telomerase [2] it was 75 nM.

Regarding “PNA (VIII): complementary PNA, sequence CCCTTCTCAGTTAGGGTTAG (all peptide nucleic acid (PNA))”, the IC50 was determined as 200 nM in the data set on human telomerase [1] (setting [4]), 300 nM in the data set with human telomerase [1] (setting [3]) and 400 nM in the data set with human telomerase [2].

Regarding “PNA (XII): complementary PNA, sequence TAGGGTTAGACAA (all peptide nucleic acid (PNA))”, the “preincubation time to reach maximal inhibition” value in the data set with human telomerase [1] (300 pM PNA) was “ninety”; with human telomerase [1] (200 nM PNA), “five”. Besides, the IC50 with human telomerase [1] (setting [4]) was found to be 0.9 nM. For the same substance, the “reversibility of inhibition once maximal inhibition attained” value in the data set with human telomerase [1] (lengthy incubation with primer and nucleotides) is “effectively irreversible”.

On to “PNA (XIII): complementary PNA, sequence GTTAGGGTTAGACAA (all peptide nucleic acid (PNA))”, for which, in the data set with human telomerase [1] (setting [3]), the concentration for half-maximal inhibition (IC50) came to 50 nM.

In the case of “PNA (IV): complementary PNA, sequence GTTAGGGTTAG (all peptide nucleic acid (PNA))”, in the data set with human telomerase [2], the IC50 was determined as 300 nM.
